From patent US6242601A, “Heterocyclic sulfamides” (Hoffman-La Roche Inc., priority 1999, dated 2001)
Blank lines part the entries; values can stand above or below the molecule they belong to.

Assays:
[1] = target: T1, recombinant human ETA receptors (Homo sapiens, UniProt P25101); assay: Inhibition of endothelin binding to recombinant human ETA receptors expressed in baculovirus-infected insect cells (125I-endothelin); settings: 125I-endothelin 20 pM; baculovirus-infected insect cell membranes; 20° C. for 2 hours or 4° C. for 24 hours
T1 sequence (P25101 21-427): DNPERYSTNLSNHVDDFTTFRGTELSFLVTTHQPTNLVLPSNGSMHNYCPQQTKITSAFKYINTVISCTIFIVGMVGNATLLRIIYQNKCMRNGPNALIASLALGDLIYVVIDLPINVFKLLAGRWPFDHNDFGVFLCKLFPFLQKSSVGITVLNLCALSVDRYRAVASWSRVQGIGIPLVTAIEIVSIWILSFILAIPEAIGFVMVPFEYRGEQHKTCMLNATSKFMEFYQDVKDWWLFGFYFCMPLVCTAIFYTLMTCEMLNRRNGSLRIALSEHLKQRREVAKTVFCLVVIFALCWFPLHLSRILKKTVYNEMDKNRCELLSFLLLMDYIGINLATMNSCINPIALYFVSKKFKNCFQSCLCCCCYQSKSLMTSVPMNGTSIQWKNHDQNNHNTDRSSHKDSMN
Description: I. […] A cDNA coding for human ETA receptors of human placenta was cloned ([…]. Yang, Y. Furuichi and C. Miyamoto, BBRC 180, 1265-1272) and expressed in the Baculovirus-insect cell system. Baculovirus-infected insect cells from a 23 1 fermenter are centrifuged off (3000×g, 15 minutes, 4° C.) 60 hours after the infection, re-suspended in Tris buffer (5 mM, pH 7.4, 1 mM MgCl2) and again centrifuged. After a further re-suspension and centrifugation the cells are suspended in 800 ml of the same buffer and […] at -120° C. The cells disintegrate when the suspension in this hypotonic buffer mixture is thawed. After a repeated […]/thawing cycle the suspension is homogenised and centrifuged (25000×g, 15 minutes, 4° C.). After suspension in Tris buffer (75 mM, pH 7.4, 25 mM MgCl2, 250 mM sucrose) 1 ml aliquots (protein content about 3.5 mg/ml) are stored at -85° C. […] The incubation is carried out at 20° C. for 2 hours or at 4° C. for 24 hours. The separation of free and membrane-bound radio-ligands is carried out by filtration over a glass fibre filter.

[2] = Pharmacokinetics of the endothelin receptor antagonists after oral gavage in rats; type: in vivo; settings: rat, plasma, 5 mg/kg in DMSO, Wistar rats, bioassay; for AUC: read-out: Area under the plasma concentration time curve; for Cmax: read-out: Peak concentration in rat plasma
Description: IV. […] The test compounds were dissolved in DMSO at a concentration of 5 mg/mL and administered orally by gavage at a dose of 1 mL/kg body weight corresponding to 5 mg/kg body weight. Two rats were administered per test compound. Blood samples were collected from the retro-orbital sinus at 1 and 5 h post dose in one rat, and at 3 and 7 h post dose in the other rat. In addition a terminal 24 h blood sample was collected from both rats by heart puncture. Blood was collected on EDTA-NaF. Plasma was derived by centrifugation at 2000 g at +4° C. for 15 min. Plasma samples were assayed for active drug related material with a bioassay, based on the binding competition of tested compounds and ^125 I ET-1 on recombinant ETA receptors. Quantitation of plasma samples was by comparison to a calibration curve build up from control rat plasma spiked with known concentrations of the test compounds.

[3] = target: T1, recombinant human ETA receptors; assay: Inhibition of endothelin binding on recombinant human ETA receptors expressed in CHO cells ([125I]ET-1, whole attached cells); set-up: expressed in transfected cells; host or cells: CHO cells; settings: 35 pM [125I]ET-1, 2 h, 22° C.
Description: II. […] Cell culture. CHO cells, expressing recombinant human ETA receptor are grown in Minimal Essential Alpha Medium (Gibco Laboratories, Paisley, Scotland) supplemented with 0.1 μM methotrexate, 5% dialyzed fetal calf serum, 100 U/ml of penicillin and 100 μg/ml of streptomycin. Binding assays with whole attached cells are performed in 500 μl Dulbecco's Eagle medium (DMEM) containing 2 mg/ml bovine serum albumin and 25 mM Hepes. After incubation (2 h, 22° C.) in the presence of 35 pM [^125 I]ET-1 and increasing concentrations of various antagonists, the cells are extensively washed and finally solubilized in 1% (w/v) SDS, 0.5 M NaOH and 100 mM EDTA. Each assay is performed three times in triplicates and non specific binding is assessed in the presence of 100 nM unlabelled ET-1. Specific binding is defined as the difference between total binding and non specific binding. IC50 values are determined after logit/log transformation of the binding data.

isolated rat aorta rings = target: T2, isolated rat aorta rings (Rattus norvegicus, UniProt P26684); assay: Inhibition of endothelin-induced contractions in isolated rat aorta rings; set-up: species or system adult Wistar-Kyoto rats; settings: rat aorta rings without endothelium, 37° C.; endothelin-1 cumulative; from dose ratio; read-out: pA2 (converted)
T2 construct: Rings with a length of 5 mm were cut out from the thorax aorta of adult Wistar-Kyoto rats; from tissue; host or cells: thoracic aorta of adult Wistar-Kyoto rats, endothelium removed
T2 sequence (P26684 21-426): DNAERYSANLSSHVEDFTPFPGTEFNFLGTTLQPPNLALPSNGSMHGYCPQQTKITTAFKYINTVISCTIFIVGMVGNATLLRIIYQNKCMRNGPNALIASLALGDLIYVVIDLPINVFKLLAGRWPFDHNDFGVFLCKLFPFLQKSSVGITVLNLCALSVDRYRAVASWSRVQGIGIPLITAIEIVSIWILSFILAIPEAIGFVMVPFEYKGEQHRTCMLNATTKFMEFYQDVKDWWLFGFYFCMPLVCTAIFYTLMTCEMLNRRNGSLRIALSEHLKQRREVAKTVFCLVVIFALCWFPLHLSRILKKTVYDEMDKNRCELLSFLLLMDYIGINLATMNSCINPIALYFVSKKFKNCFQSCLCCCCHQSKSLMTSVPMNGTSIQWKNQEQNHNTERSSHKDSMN
Description: Rings with a length of 5 mm were cut out from the thorax aorta of adult Wistar-Kyoto rats. The endothelium was removed by lightly rubbing the internal surface. Each ring was immersed at 37° C. in 10 ml of Krebs-Henseleit solution in an isolated bath while gassing with 95% O2 and 5% CO2. The isometric stretching of the rings was measured. The rings were stretched to a pre-tension of 3 g.
The corresponding pA2 value, which is a measure of the activity of the test compound, was calculated using a computer programme according to the following equation from the "dose ratio" DR for each individual dosage-activity curve.
pA2 =log(DR-1)-log(antagonist-concentration)

IC50 [1]: ≤ 50 nM
SMILES: C=C(C)c1ccc(S(=O)(=O)Nc2nc(-c3cccc(O)c3)nc(OC)c2Oc2ccccc2OC)nc1 [Example 15, 5-isopropenyl-pyridine-2-sulfonic acid [2-(3-hydroxy-phenyl)-6-methoxy-5-(2-methoxy-phenoxy)-pyrimidin-4-yl]-amide]

AUC [2]: ≥ 10000 ng·h/mL
Cmax [2]: ≥ 1500 ng/mL
IC50 [3]: ≤ 10 nM
SMILES: COc1ccccc1Oc1c(NS(=O)(=O)c2ccc(C)cn2)nc(-c2ccnc(C#N)c2)nc1OC [Example 19, 5-methyl-pyridine-2-sulfonic acid [2-(2-cyano-pyridin-4-yl)-6-methoxy-5-(2-methoxy-phenoxy)-pyrimidin-4-yl]-amide]

Kb (isolated rat aorta rings): ≤ 6.31 nM
SMILES: COc1ccccc1Oc1c(NS(=O)(=O)c2ccc(C(C)C)cn2)nc(-c2ccnc(CO)c2)nc1OC [Example 44, 5-isopropyl-pyridine-2-sulfonic acid [2-(2-hydroxymethyl-pyridin-4-yl)-6-methoxy-5-(2-methoxy-phenoxy)-pyrimidin-4-yl]-amide]

IC50 [3]: ≤ 10 nM
SMILES: COC(=O)COc1cccc(-c2nc(NS(=O)(=O)c3ccc(C)cn3)c(Oc3ccccc3OC)c(OC)n2)c1 [Example 2, {3-[4-methoxy-5-(2-methoxy-phenoxy)-6-(5-methyl-pyridine-2-sulfonylamino)-pyrimidin-2-yl]-phenoxy}-acetic acid methyl ester]

IC50 [3]: ≤ 10 nM
IC50 [1]: ≤ 50 nM
SMILES: COc1ccccc1Oc1c(NS(=O)(=O)c2ccc(C)cn2)nc(-c2ccnc(CO)c2)nc1OC [Example 29, 5-methyl-pyridine-2-sulfonic acid [2-(2-hydroxymethyl-pyridin-4-yl)-6-methoxy-5-(2-methoxy-phenoxy)-pyrimidin-4-yl]-amide]

Further lines, the molecule ahead of its results:

SMILES: COc1ccccc1Oc1c(NS(=O)(=O)c2ccc(C)cn2)nc(-c2ccnc(C(=N)NO)c2)nc1OC [Example 34, N-hydroxy-4-[4-methoxy-5-(2-methoxy-phenoxy)-6-(5-methyl-pyridine-2-sulfonylamino)-pyrimidin-2-yl]-pyridine-2-carboxamidine]
IC50 [1]: ≤ 50 nM

SMILES: COc1ccccc1Oc1c(NS(=O)(=O)c2ccc(C(C)C)cn2)nc(-c2ccnc(C(=O)N(C)C)c2)nc1OC [Example 51, 4-[4-(5-isopropyl-pyridine-2-sulfonylamino)-6-methoxy-5-(2-methoxy-phenoxy)-pyrimidin-2-yl]-pyridine-2-carboxylic acid dimethylamide]
IC50 [1]: ≤ 50 nM

SMILES: COc1ccccc1Oc1c(NS(=O)(=O)c2ccc(C(C)C)cn2)nc(-c2ccnc(CNC(C)=O)c2)nc1OC [Example 52, N-{4-[4-(5-isopropyl-pyridine-2-sulfonylamino)-6-methoxy-5-(2-methoxy-phenoxy)-pyrimidin-2-yl]-pyridin-2-ylmethyl}-acetamide]
AUC [2]: ≥ 10000 ng·h/mL
Cmax [2]: ≥ 1500 ng/mL
Kb (isolated rat aorta rings): ≤ 6.31 nM

SMILES: COc1ccccc1Oc1c(NS(=O)(=O)c2ccc(C)cn2)nc(-c2ccnc(OCCO)c2)nc1OC [Example 36, 5-methyl-pyridine-2-sulfonic acid [2-[2-(2-hydroxy-ethoxy)-pyridin-4-yl]-6-methoxy-5-(2-methoxy-phenoxy)-pyrimidin-4-yl]-amide]
IC50 [3]: ≤ 10 nM

SMILES: COC(=O)c1cc(-c2nc(NS(=O)(=O)c3ccc(C)cn3)c(Oc3ccccc3OC)c(OC)n2)ccn1 [Example 22, 4-[4-methoxy-5-(2-methoxy-phenoxy)-6-(5-methyl-pyridine-2-sulfonylamino)-pyrimidin-2-yl]-pyridine-2-carboxylic acid methyl ester]
AUC [2]: ≥ 10000 ng·h/mL
Cmax [2]: ≥ 1500 ng/mL
IC50 [1]: ≤ 50 nM

SMILES: CCOc1cc(-c2nc(NS(=O)(=O)c3ccc(C)cn3)c(Oc3ccccc3OC)c(OC)n2)ccn1 [Example 38, 5-methyl-pyridine-2-sulfonic acid [2-(2-ethoxy-pyridin-4-yl)-6-methoxy-5-(2-methoxy-phenoxy)-pyrimidin-4-yl]-amide]
IC50 [1]: ≤ 50 nM

SMILES: COc1ccccc1Oc1c(NS(=O)(=O)c2ccc(C(C)C)cn2)nc(-c2ccnc(-c3noc(C)n3)c2)nc1OC [Example 56, 5-isopropyl-pyridine-2-sulfonic acid {6-methoxy-5-(2-methoxy-phenoxy)-2-[2-(5-methyl-[1,2,4]oxadiazol-3-yl)-pyridin-4-yl]-pyrimidin-4-yl}-amide]
IC50 [1]: ≤ 50 nM

SMILES: COc1ccccc1Oc1c(NS(=O)(=O)c2ccc(C)cn2)nc(-c2ccnc(C(=O)OCCO)c2)nc1OC [Example 25, 4-[4-methoxy-5-(2-methoxy-phenoxy)-6-(5-methyl-pyridine-2-sulfonylamino)-pyrimidin-2-yl]-pyridine-2-carboxylic acid 2-hydroxy-ethyl ester]
IC50 [1]: ≤ 50 nM

SMILES: CCS(=O)(=O)NCc1cc(-c2nc(NS(=O)(=O)c3ccc(C)cn3)c(Oc3ccccc3OC)c(OC)n2)ccn1 [Example 32, 5-methyl-pyridine-2-sulfonic acid [2-[2-(ethanesulfonylamino-methyl)-pyridin-4-yl]-6-methoxy-5-(2-methoxy-phenoxy)-pyrimidin-4-yl]-amide]
IC50 [1]: ≤ 50 nM

SMILES: COc1ccccc1Oc1c(NS(=O)(=O)c2ccc(C)cn2)nc(-c2ccnc(CNC(C)=O)c2)nc1OC [Example 30, N-{4-[4-methoxy-5-(2-methoxy-phenoxy)-6-(5-methyl-pyridine-2-sulfonylamino)-pyrimidin-2-yl]-pyridin-2-ylmethyl}-acetamide]
IC50 [3]: ≤ 10 nM

SMILES: CNC(=O)c1cc(-c2nc(NS(=O)(=O)c3ccc(C(C)C)cn3)c(Oc3ccccc3OC)c(OC)n2)ccn1 [Example 48, 4-[4-(5-isopropyl-pyridine-2-sulfonylamino)-6-methoxy-5-(2-methoxy-phenoxy)-pyrimidin-2-yl]-pyridine-2-carboxylic acid methylamide]
IC50 [1]: ≤ 50 nM

SMILES: COc1ccccc1Oc1c(NS(=O)(=O)c2ccc(C(C)C)cn2)nc(-c2ccnc(OCCO)c2)nc1OC [Example 57, 5-isopropyl-pyridine-2-sulfonic acid [2-[2-(2-hydroxy-ethoxy)-pyridin-4-yl]-6-methoxy-5-(2-methoxy-phenoxy)-pyrimidin-4-yl]-amide]
Kb (isolated rat aorta rings): ≤ 6.31 nM
